# Measurements as given in patent US20260109721A1, “IONIZABLE CATIONIC LIPIDS INCORPORATING SILICON: SYNTHESIS AND LNP FORMULATION” (priority 2023, published 2026).
# Legend:
# HeLa cells = assay: Transfection efficiency with Luciferase (SecNLuc) mRNA, Nano-Glo assay (Method A); type: cell-based; conditions: Luc mRNA, 24 h, luminescence; for Transfection 10 ng mRNA: 10 ng mRNA/well; for Transfection 50 ng mRNA: 50 ng mRNA/well; for Transfection 100 ng mRNA: 100 ng mRNA/well
# Procedure, shortened: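 LNPs formulated by Method A carried SecNLuc mRNA at 100, 50 or 10 ng/well onto HeLa cells at 80% confluence, in triplicate. After 24 h, secreted NanoLuc in the medium was measured by Nano-Glo luminescence about 3 min after reagent addition.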
# [1] = LNP size, PDI and zeta potential by Dynamic Light Scattering (Method A); type: physicochemical; conditions: LNP formulated with the lipid, DLS
# Procedure, shortened: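 LNPs formed by microfluidic mixing of ethanolic lipid mix with Luc mRNA in 10 mM citrate pH 4.0, about 12 ml/min total flow at 3:1 ratio. Particle size, PDI and zeta potential then measured by dynamic light scattering.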
SMILES,Transfection 10 ng mRNA (HeLa cells),Transfection 50 ng mRNA (HeLa cells),Transfection 100 ng mRNA (HeLa cells),PDI [1],Size (nm) [1] [nm],Zeta potential (mV) [1] [mV]
"CCCCCCCC/C=C\CCCCCCCC(OCCC(C)CCCC(C)CCCC(C)CCCC(C)C)O[Si](C)(C)OCCCCCCN(CCO)CCO (stereo not drawn) [Example 75, (Z)-13-(heptadec-8-en-1-yl)-3-(2-hydroxyethyl)-11,11,17,21,25,29-hexamethyl-10,12,14-trioxa-3-aza-11-silatriacontan-1-ol]",1.68E+03,2.82E+04,1.07E+05,0.18,76.35,−13.40
"CCCCCCCC/C=C\CCCCCCCC(OCCCCCCCCCCCCCCC(C)C)O[Si](C)(C)OCCCCCCN(CCO)CCO (stereo not drawn) [Example 76, (Z)-13-(heptadec-8-en-1-yl)-3-(2-hydroxyethyl)-11,11,29-trimethyl-10,12,14-trioxa-3-aza-11-silatriacontan-1-ol]",3.30E+03,6.71E+04,3.34E+05,0.2,108.4,−19.39
"CCCCC/C=C\C/C=C\CCCCCCCCOC(CCCCCCC/C=C\C/C=C\CCCCC)O[Si](C)(C)OCCCCCCN(C)[C@H](CO)Cc1ccccc1 (stereo partly drawn) [Example 77, (2S,23Z,26Z)-2-benzyl-13-((8Z,11Z)-heptadeca-8,11-dien-1-yl)-3,11,11-trimethyl-10,12,14-trioxa-3-aza-11-siladotriaconta-23,26-dien-1-ol]",3.44E+02,2.55E+03,6.09E+03,0.05,90.59,−10.95
"CCCCCCCC/C=C\CCCCCCCCOC(CCCCCCC/C=C\CCCCCCCC)O[Si](C)(C)OCCCCCCN(C)[C@H](CO)Cc1ccccc1 (stereo partly drawn) [Example 78, (2S,Z)-2-benzyl-13-((Z)-heptadec-8-en-1-yl)-3,11,11-trimethyl-10,12,14-trioxa-3-aza-11-siladotriacont-23-en-1-ol]",2.45E+03,1.55E+04,3.54E+04,0.10,92.14,−19.77
"CCCCC/C=C\C/C=C\CCCCCCCCOC(CCCCCCC/C=C\C/C=C\CCCCC)O[Si](C)(C)OCCCCCCN(C)C (stereo not drawn) [Example 79, (20Z,23Z)-10-((8Z,11Z)-heptadeca-8,11-dien-1-yl)-N,N,8,8-tetramethyl-7,9,11-trioxa-8-silanonacosa-20,23-dien-1-amine]",2.45E+03,8.30E+04,2.01E+05,0.09,102.1,−2425
"CCCCC/C=C\C/C=C\CCCCCCCCO[Si](C)(C)OC(CCCCCCC/C=C\C/C=C\CCCCC)OCCCN(C)C (stereo not drawn) [Example 80, (17Z,20Z)-5-((8Z,11Z)-heptadeca-8,11-dien-1-yl)-N,N,7,7-tetramethyl-4,6,8-trioxa-7-silahexacosa-17,20-dien-1-amine]",1.90E+01,1.25E+02,5.41E+02,0.11,90.19,−26.51
"CCCCC/C=C\C/C=C\CCCCCCCCO[Si](C)(C)OC(CCCCCCC/C=C\CCCCCCCC)OCCCN(C)C (stereo not drawn) [Example 81, (17Z,20Z)-5-((Z)-heptadec-8-en-1-yl)-N,N,7,7-tetramethyl-4,6,8-trioxa-7-silahexacosa-17,20-dien-1-amine]",1.57E+02,5.31E+02,5.71E+02,0.10,104,−25.24
"CCCCC/C=C\C/C=C\CCCCCCCCOC(CCCCCCC/C=C\C/C=C\CCCCC)O[Si](C)(C)O[Si](C)(C)CCCCCCN(CCO)CCO (stereo not drawn) [Example 82, (24Z,27Z)-14-((8Z,11Z)-heptadeca-8,11-dien-1-yl)-3-(2-hydroxyethyl)-10,10,12,12-tetramethyl-11,13,15-trioxa-3-aza-10,12-disilatritriaconta-24,27-dien-1-ol]",1.16E+03,7.26E+03,3.59E+04,0.26,97.5,−16.31
"CCCCCCCC/C=C\CCCCCCCCOC(=O)C(C)(C)CC(OCCCCCCCC/C=C\CCCCCCCC)O[Si](C)(C)OCCCCCCN(CCO)CCO (stereo not drawn) [Example 84, (Z)-octadec-9-en-1-yl 1-hydroxy-3-(2-hydroxyethyl)-11,11,15,15-tetramethyl-13-(((Z)-octadec-9-en-1-yl)oxy)-10,12-dioxa-3-aza-11-silahexadecan-16-oate]",3.08E+03,5.69E+04,2.00E+05,0.15,71.7,−16.66
"CCCCCCCC/C=C\CCCCCCCCOC(=O)C(C)(C)CC(OCCCCCCCC/C=C\CCCCCCCC)O[Si](C)(C)OCCCCCCN1CCOCC1 (stereo not drawn) [Example 85, (Z)-octadec-9-en-1-yl 4-((dimethyl((6-morpholinohexyl)oxy)silyl)oxy)-2,2-dimethyl-4-(((Z)-octadec-9-en-1-yl)oxy)butanoate]",4.67E+00,3.23E+01,8.37E+01,0.1,96.37,−14.54
"CCCCCCCC/C=C\CCCCCCCCOC(=O)C(C)(C)CC(OCCCCCCCC/C=C\CCCCCCCC)O[Si](C)(C)OCCCCCCN(CCCCO)CCCCO (stereo not drawn) [Example 86, (Z)-octadec-9-en-1-yl 18-hydroxy-14-(4-hydroxybutyl)-2,2,6,6-tetramethyl-4-(((Z)-octadec-9-en-1-yl)oxy)-5,7-dioxa-14-aza-6-silaoctadecanoate]",3.47E+04,4.82E+05,1.37E+06,0.25,109.7,−13.69
"CCCCCCCC/C=C\CCCCCCCCOC(=O)C(C)(C)CC(OCCCCCCCC/C=C\CCCCCCCC)O[Si](C)(C)OCCCCCCN1CCCCC1 (stereo not drawn) [Example 87, (Z)-octadec-9-en-1-yl 4-((dimethyl((6-(piperidin-1-yl)hexyl)oxy)silyl)oxy)-2,2-dimethyl-4-(((Z)-octadec-9-en-1-yl)oxy)butanoate]",5.68E+03,5.01E+04,9.96E+04,0.06,101.8,−12.28
"CCCCCCCC/C=C\CCCCCCCCOC(=O)C(C)(C)CC(OCCCCCCCC/C=C\CCCCCCCC)O[Si](C)(C)OCCCCCCN(CCCO)CCCO (stereo not drawn) [Example 88, (Z)-octadec-9-en-1-yl 1-hydroxy-4-(3-hydroxypropyl)-12,12,16,16-tetramethyl-14-(((Z)-octadec-9-en-1-yl)oxy)-11,13-dioxa-4-aza-12-silaheptadecan-17-oate]",6.30E+03,9.95E+04,5.10E+05,0.21,86.51,−7.76
"CCCCCCCC/C=C\CCCCCCCCOC(=O)C(C)(C)CC(OCCCCCCCC/C=C\CCCCCCCC)O[Si](C)(C)OCCCCCCN1CCCCC1CO (stereo not drawn) [Example 89, (Z)-octadec-9-en-1-yl 4-((((6-(2-(hydroxymethyl)piperidin-1-yl)hexyl)oxy)dimethylsilyl)oxy)-2,2-dimethyl-4-(((Z)-octadec-9-en-1-yl)oxy)butanoate]",1.10E+06,7.47E+06,1.54E+07,0.12,97.17,−10.93
"CCCCCCCC/C=C\CCCCCCCCOC(=O)C(C)(C)CC(OCCCCCCCC/C=C\CCCCCCCC)O[Si](C)(C)OCCCCCCN1CCCC1CO (stereo not drawn) [Example 90, (Z)-octadec-9-en-1-yl 4-((((6-(2-(hydroxymethyl)pyrrolidin-1-yl)hexyl)oxy)dimethylsilyl)oxy)-2,2-dimethyl-4-(((Z)-octadec-9-en-1-yl)oxy)butanoate]",2.84E+04,1.06E+06,4.86E+06,0.14,100.2,−16.19
"CCCCCCCC/C=C\CCCCCCCCOC(=O)C(C)(C)CC(OCCCCCCCC/C=C\CCCCCCCC)O[Si](C)(C)OCCCCCCN(C)CCCCO (stereo not drawn) [Example 91, (Z)-octadec-9-en-1-yl 18-hydroxy-2,2,6,6,14-pentamethyl-4-(((Z)-octadec-9-en-1-yl)oxy)-5,7-dioxa-14-aza-6-silaoctadecanoate]",7.02E+03,1.13E+05,7.45E+05,0.17,85.49,−15.27
"CCCCCCCC/C=C\CCCCCCCCOC(=O)C(C)(C)CC(OCCCCCCCC/C=C\CCCCCCCC)O[Si](C)(C)OCCCCCCN(C)CC(O)CO (stereo not drawn) [Example 92, (Z)-octadec-9-en-1-yl 1,2-dihydroxy-4,12,12,16,16-pentamethyl-14-(((Z)-octadec-9-en-1-yl)oxy)-11,13-dioxa-4-aza-12-silaheptadecan-17-oate]",3.35E+03,3.94E+04,1.65E+05,0.23,85.81,−12.56
